Molecules are shown by their SMILES. The source made the active and inactive calls.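 Rule for the calls: active = a tumor-causing dose value with its tumor site reported for any sex and species group of a rodent or other animal cancer study; inconclusive = only studies judged inadequate by the national testing program; inactive = tested in at least one study, none positive.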

The nature of this data set: DSSTox (CPDBAS) Carcinogenic Potency Database Summary SingleCellCall Results. Particulars: animal chronic carcinogenicity bioassays, CPDB summary call. The essentials: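 Categorical carcinogenicity call compiled from published chronic rodent and other animal cancer bioassays; based on the most positive result across experiments for each sex-species, assigned on minimal evidence for or against activity.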
Turning to `CCCCCCCCCCN(C)N=O`, the outcome was active. For the compound `Nc1ccc(-c2ccc(N)c(O)c2)cc1O`, the outcome was active. For `Nc1ccc(-c2ccccc2)cc1`, the outcome was active. The entry for `S=[Se]` is “active”; for `NC(=O)Cc1c([O-])on[n+]1Cc1ccccc1` it is “active; inactive”; for `COc1ccc(CN(CCN(C)C)c2ccccn2)cc1` it is “active; inactive”. Under `C=CC(=O)OCC` stands “active”; under `S=C=NCCCc1ccccc1`, “inactive”; under `CC(=O)NNC(=O)c1ccncc1`, “active”.

In the case of `FC(F)=C(F)F`, the outcome is “active; inactive”.

Source of the values: PubChem BioAssay AID1189 (EPA DSSTox, 2008).
